Measurements reported in patent US11878966B2, “Substituted 4-benzyl and 4-benzoyl piperidine derivates” (89BIO LTD, priority 2015, dated 2024).

These compounds were tested against T1, recombinant human baculovirus-expressed GST-tagged FASN (Homo sapiens, UniProt P49327) (assay: FASN enzyme activity assay: fluorescence-based detection of CoA with CPM). Settings: 5 nM FASN, 150 μM NADPH, 10 μM acetyl-CoA, 25 μM malonyl-CoA, 90 minutes incubation.
T1 construct: GST; host or cells: baculovirus expression system (insect cells implied)
Type: biochemical
Description: FASN Enzyme activity may be determined by detecting coenzyme A (CoA), a product of FASN-catalyzed synthesis of palmitate from acetyl-CoA and malonyl-CoA with NADPH as a cofactor. The assay is fluorescence-based and measures the interaction of free CoA with 7-diethylamino-3-(4′-malemimidylphenyl)-4-methylcoumarin (CPM; Life Technologies, CA) as described in Chung et al (2008). The coumarin derivative CPM contains a thiol-reactive maleimide that becomes fluorescent upon interaction with the sulfhydryl group of CoA.
For the example compounds described herein, the reaction was performed in 384-well low volume non-binding platews (Corning, NY) using recombinant human baculovirus-expressed GST-tagged FASN. The 20-μL assay mixture contained 50 mM HEPES (pH 7.5), 5 nM FASN, 150 μM NADPH (Sigma, St. Louis, MO), 10 μM acetyl-CoA (Sigma), 25 μM malonyl-CoA (Sigma) and test compound [diluted in dimethyl sulfoxide (DMSO); 0.5% DMSO final in assay after 100 nL addition]. See, Chung et al.; “A fluorescence-based thiol quantification assay for ultra-high-throughput screening for inhibitors of coenzyme A production,” Assay Drug Dev Tech 2008; 6:361-374.
The reaction was initiated by adding malonyl-CoA, followed by incubation for 90 minutes at […]. A stock solution of the CPM reagent was prepared in DMSO al 66 μM and stored at […]. To detect CoA produced in the FASN reaction, the CPM stock was diluted to 50 μM in 70% ethanol and added at 4 μL/well to the assay place. The reaction mixture was then incubated for 30 minutes. Fluorescence was measured using the EnVision™ 2102 multi-label plate reader (PerkinElmer, Waltham, MA) utilizing a general dual mirror, a 390 nm excitation filter and a 530 nm emission filter. Data analysis was performed using ActivityBase (IDBS, Guilford, UK). IC50 values were calculated by plotting the percent inhibition versus log 10 of the concentration of the compound, and fitting to the nonlinear regression sigmoidal dose-response (variable slope) equation in XLFit (IDBS).

T1 sequence (P49327 whole entry): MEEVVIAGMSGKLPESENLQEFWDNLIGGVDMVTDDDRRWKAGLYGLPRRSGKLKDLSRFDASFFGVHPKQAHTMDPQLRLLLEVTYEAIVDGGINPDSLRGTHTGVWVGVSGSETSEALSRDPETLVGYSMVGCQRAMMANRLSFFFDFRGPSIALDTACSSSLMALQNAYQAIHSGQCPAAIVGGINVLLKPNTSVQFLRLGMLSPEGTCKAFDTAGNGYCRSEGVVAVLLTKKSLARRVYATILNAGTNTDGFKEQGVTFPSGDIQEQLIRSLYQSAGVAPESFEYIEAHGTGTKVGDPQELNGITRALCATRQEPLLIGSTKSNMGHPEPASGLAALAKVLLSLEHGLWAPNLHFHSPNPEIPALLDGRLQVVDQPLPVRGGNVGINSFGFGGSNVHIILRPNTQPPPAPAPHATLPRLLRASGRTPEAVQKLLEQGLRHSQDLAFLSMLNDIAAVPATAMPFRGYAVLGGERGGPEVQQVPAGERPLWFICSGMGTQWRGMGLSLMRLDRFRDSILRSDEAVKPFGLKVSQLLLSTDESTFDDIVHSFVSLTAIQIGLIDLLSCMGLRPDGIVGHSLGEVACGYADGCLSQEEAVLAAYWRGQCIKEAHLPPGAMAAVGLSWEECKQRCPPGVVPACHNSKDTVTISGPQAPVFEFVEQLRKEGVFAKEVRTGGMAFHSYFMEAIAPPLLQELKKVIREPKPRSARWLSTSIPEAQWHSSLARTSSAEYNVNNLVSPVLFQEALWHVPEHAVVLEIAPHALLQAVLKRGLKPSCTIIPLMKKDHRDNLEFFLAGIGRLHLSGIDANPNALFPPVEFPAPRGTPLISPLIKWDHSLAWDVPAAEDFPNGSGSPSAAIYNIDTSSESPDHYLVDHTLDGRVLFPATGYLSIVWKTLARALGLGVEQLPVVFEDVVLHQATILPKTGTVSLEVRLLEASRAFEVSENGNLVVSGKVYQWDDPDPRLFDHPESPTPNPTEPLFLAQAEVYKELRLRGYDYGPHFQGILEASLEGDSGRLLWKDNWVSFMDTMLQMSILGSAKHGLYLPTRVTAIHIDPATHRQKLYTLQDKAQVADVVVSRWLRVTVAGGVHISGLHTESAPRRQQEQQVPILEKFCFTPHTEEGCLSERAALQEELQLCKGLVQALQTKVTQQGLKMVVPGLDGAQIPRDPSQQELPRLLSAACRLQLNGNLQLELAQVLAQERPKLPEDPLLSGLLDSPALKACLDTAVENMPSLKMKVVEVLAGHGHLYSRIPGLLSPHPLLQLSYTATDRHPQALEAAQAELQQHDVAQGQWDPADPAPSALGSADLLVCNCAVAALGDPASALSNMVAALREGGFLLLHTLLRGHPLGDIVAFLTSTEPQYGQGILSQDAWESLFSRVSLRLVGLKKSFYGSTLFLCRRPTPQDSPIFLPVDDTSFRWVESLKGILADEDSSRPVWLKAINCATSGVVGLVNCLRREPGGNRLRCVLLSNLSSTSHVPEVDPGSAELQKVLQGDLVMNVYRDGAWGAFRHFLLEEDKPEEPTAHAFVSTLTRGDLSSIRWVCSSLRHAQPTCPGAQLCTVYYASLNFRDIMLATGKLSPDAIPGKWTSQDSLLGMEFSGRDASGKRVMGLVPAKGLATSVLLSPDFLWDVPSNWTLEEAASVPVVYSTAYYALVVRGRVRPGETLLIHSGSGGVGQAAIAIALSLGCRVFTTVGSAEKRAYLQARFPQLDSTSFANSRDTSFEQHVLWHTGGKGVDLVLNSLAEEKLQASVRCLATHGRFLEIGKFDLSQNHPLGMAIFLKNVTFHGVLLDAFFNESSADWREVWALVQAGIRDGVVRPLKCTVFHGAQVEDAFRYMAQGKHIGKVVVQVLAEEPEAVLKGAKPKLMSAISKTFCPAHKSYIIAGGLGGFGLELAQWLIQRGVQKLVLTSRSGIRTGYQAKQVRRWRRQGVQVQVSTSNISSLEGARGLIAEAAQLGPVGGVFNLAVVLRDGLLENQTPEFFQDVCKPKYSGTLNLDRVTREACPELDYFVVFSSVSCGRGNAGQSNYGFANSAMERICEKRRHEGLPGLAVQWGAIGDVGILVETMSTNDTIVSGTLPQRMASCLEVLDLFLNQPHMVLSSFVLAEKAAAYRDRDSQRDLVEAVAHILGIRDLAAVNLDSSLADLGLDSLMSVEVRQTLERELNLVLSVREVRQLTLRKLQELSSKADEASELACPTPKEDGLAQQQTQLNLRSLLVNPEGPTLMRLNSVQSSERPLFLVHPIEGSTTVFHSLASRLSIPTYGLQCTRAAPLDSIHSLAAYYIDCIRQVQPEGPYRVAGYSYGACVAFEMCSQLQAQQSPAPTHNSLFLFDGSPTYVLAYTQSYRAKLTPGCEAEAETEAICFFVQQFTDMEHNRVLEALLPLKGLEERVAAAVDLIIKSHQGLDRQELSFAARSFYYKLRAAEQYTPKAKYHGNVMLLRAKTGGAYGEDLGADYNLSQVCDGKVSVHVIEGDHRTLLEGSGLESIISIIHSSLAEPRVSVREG

IC50, 1 to 99 nM:
COc1c(-c2ccc(C(C)C3CCN(C(=O)[C@H]4CCCO4)CC3)cc2)ccc2cccnc12 (mixture of isomers) [Example 69, (4-{1-[4-(8-Methoxyquinolin-7-yl)-phenyl]-ethyl}-piperidin-1-yl)-(R)-tetrahydrofuran-2-yl-methanone]
Cc1c(-c2ccc(C(C)C3CCN(C(=O)[C@H]4CCCO4)CC3)cc2)ccc2cccnc12 (mixture of isomers) [Example 70, (4-{1-[4-(8-Methylquinolin-7-yl)-phenyl]-ethyl}-piperidin-1-yl)-(R)-tetrahydrofuran-2-yl-methanone]
Cc1c(-c2ccc(C(C)C3CCN(C(=O)[C@H]4CCCO4)CC3)cc2)cnc2ccccc12 (mixture of isomers) [Example 71, (4-{1-[4-(4-Methylquinolin-3-yl)-phenyl]-ethyl}-piperidin-1-yl)-(R)-tetrahydrofuran-2-yl-methanone]
CC(c1ccc(-c2ccc3cccnc3c2Cl)cc1)C1CCN(C(=O)[C@H]2CCCO2)CC1 (mixture of isomers) [Example 74, (4-{1-[4-(8-Chloroquinolin-7-yl)-phenyl]-ethyl}-piperidin-1-yl)-(R)-tetrahydrofuran-2-yl-methanone]
CC(c1ccc(-c2cnc3ccccc3c2Cl)cc1)C1CCN(C(=O)[C@H]2CCCO2)CC1 (mixture of isomers) [Example 77, (4-{1-[4-(4-Chloroquinolin-3-yl)-phenyl]-ethyl}-piperidin-1-yl)-(R)-tetrahydrofuran-2-yl-methanone]
COCCOC(c1ccc(-c2ccc3c(C)nccc3c2)cc1)C1CCN(C(=O)[C@H]2CCCO2)CC1 (mixture of isomers) [Example 82, (4-{(2-Methoxyethoxy)-[4-(1-methylisoquinolin-6-yl)-phenyl]-methyl}-piperidin-1-yl)-(R)-tetrahydrofuran-2-yl-methanone]
CCC(=O)N1CCC(C(=NOC)c2ccc(-c3ccc4cccnc4c3)cc2)CC1 (racemic) [Example 50, 1-{4-[[Methoxyimino]-(4-quinolin-7-yl-phenyl)-methyl]-piperidin-1-yl}-propan-1-one]
CCC(=O)N1CC[C@@H](Cc2ccc(-c3cnc4ccccc4c3)cc2)[C@@H](F)C1 (relative stereo) [Example 221, 1-[cis-3-Fluoro-4-(4-quinolin-3-yl-benzyl)-piperidin-1-yl]-propan-1-one]
CCC(=O)N1CCC(C(C)c2ccc(-c3cnc4ccccc4c3)cc2)CC1 (single isomer, unassigned) [Example 67, 1-{4-[1-(4-Quinolin-3-yl-phenyl)-ethyl]-piperidin-1-yl}-propan-1-one]
CCC(=O)N1CCC(C(C)c2ccc(-c3cnc4ccccc4c3)cc2)CC1 (single isomer, unassigned) [Example 68, 1-{4-[1-(4-Quinolin-3-yl-phenyl)-ethyl]-piperidin-1-yl}-propan-1-one]
O=C(C1CCCO1)N1CC=C(Cc2ccc(-c3ccc4cccnc4c3)cc2)CC1 (stereo in doubt) [Example 188, (R)-(4-(4-(quinolin-7-yl)benzyl)-5,6-dihydropyridin-1(2H)-yl)(tetrahydrofuran-2-yl)methanone]
O=C(C1CCCO1)N1CCC(F)(Cc2ccc(-c3cnc4ccccc4c3)cc2)CC1 (stereo in doubt) [Example 189, (R)-(4-fluoro-4-(4-(quinolin-3-yl)benzyl)piperidin-1-yl)(tetrahydrofuran-2-yl)methanone]
O=C(C1CCCO1)N1CC=C(Cc2ccc(-c3cnc4ccccc4c3)cc2)CC1 (stereo in doubt) [Example 190, (R)-(4-(4-(quinolin-3-yl)benzyl)-5,6-dihydropyridin-1(2H)-yl)(tetrahydrofuran-2-yl)methanone]
CCC(=O)N1CCC(Cc2ccc(-c3cnc4ccccc4c3)cc2)CC1 [Example 1, 1-[4-(4-Quinolin-3-yl-benzyl)-piperidin-1-yl]-propan-1-one]
CC(C)C(=O)N1CCC(Cc2ccc(-c3cnc4ccccc4c3)cc2)CC1 [Example 2, 2-Methyl-1-[4-(4-quinolin-3-yl-benzyl)-piperidin-1-yl]-propan-1-one]
O=C(C1CC1)N1CCC(Cc2ccc(-c3cnc4ccccc4c3)cc2)CC1 [Example 3, Cyclopropyl-[4-(4-quinolin-3-yl-benzyl)-piperidin-1-yl]-methanone]
O=C([C@H]1CCCO1)N1CCC(Cc2ccc(-c3cnc4ccccc4c3)cc2)CC1 [Example 4]
O=C([C@@H]1CCCO1)N1CCC(Cc2ccc(-c3cnc4ccccc4c3)cc2)CC1 [Example 5]
CCC(=O)N1CCC(C(F)c2ccc(-c3cnc4ccccc4c3)cc2)CC1 (stereo not shown) [Example 6, 1-{4-[Fluoro-(4-quinolin-3-yl-phenyl)-methyl]-piperidin-1-yl}-propan-1-one]
O=C(C1CC1)N1CCC(C(F)c2ccc(-c3cnc4ccccc4c3)cc2)CC1 (stereo not shown) [Example 7, Cyclopropyl-{4-[fluoro-(4-quinolin-3-yl-phenyl)-methyl]-piperidin-1-yl}-methanone]
O=C([C@H]1CCCO1)N1CCC(C(F)c2ccc(-c3cnc4ccccc4c3)cc2)CC1 (stereo partly drawn) [Example 8, {4-[Fluoro-(4-quinolin-3-yl-phenyl)-methyl]-piperidin-1-yl}-(R)-tetrahydro-furan-2-yl-methanone]
Cc1c(-c2ccc(C(F)(F)C3CCN(C(=O)[C@H]4CCCO4)CC3)cc2)cnc2ccccc12 [Example 11, (4-{Difluoro-[4-(4-methylquinolin-3-yl)-phenyl]-methyl}-piperidin-1-yl)-(R)-tetrahydrofuran-2-yl-methanone]
CCC(=O)N1CCC(Cc2ccc(-c3cnc4ccccc4c3C)cc2)CC1 [Example 12, 1-{4-[4-(4-Methylquinolin-3-yl)-benzyl]-piperidin-1-yl}-propan-1-one]
Cc1c(-c2ccc(CC3CCN(C(=O)C4CC4)CC3)cc2)cnc2ccccc12 [Example 13, Cyclopropyl-{4-[4-(4-methylquinolin-3-yl)-benzyl]-piperidin-1-yl}-methanone]

IC50, 100 to 999 nM:
CCC(=O)N1CC[C@@H](Cc2ccc(-c3cnc4ccccc4c3)cc2)[C@H](O)C1 (relative stereo) [Example 218, 1-[trans-3-Hydroxy-4-(4-quinolin-3-yl-benzyl)-piperidin-1-yl]-propan-1-one]
CCC(=O)N1CC[C@@H](Cc2ccc(-c3cnc4ccccc4c3)cc2)[C@H](OC)C1 (relative stereo) [Example 219, 1-[(trans)-3-Methoxy-4-(4-quinolin-3-yl-benzyl)-piperidin-1-yl]-propan-1-one]
CCC(=O)N1CCC(C(F)(F)c2ccc(-c3cnc4ccccc4c3C)cc2)CC1 [Example 9, 1-(4-{difluoro-[4-(4-methyl-quinolin-3-yl)-phenyl]-methyl}-piperidin-1-yl)-propan-1-one]
Cc1c(-c2ccc(C(F)(F)C3CCN(C(=O)C4CC4)CC3)cc2)cnc2ccccc12 [Example 10, Cyclopropyl-(4-{difluoro-[4-(4-methyl-quinolin-3-yl)-phenyl]-methyl}-piperidin-1-yl)-methanone]
